Patent US20250073207A1, “PSILOCIN BENZOATE FORMULATION FOR I[…]” (Eleusis Therapeutics US, Inc., priority 2022, published 2025)

Assays:
[1] = Stability in solution of psilocin free base versus benzoate salt; conditions: prone to oxidation
[2] = Solubility testing of psilocin benzoate salt in potential intravenous vehicles
Experimental: Solubility of the psilocin benzoate salt was assessed in a range of potential intravenous vehicles. […] Each vehicle was degassed by sonication prior to use.
The pH of each formulation was measured and samples for assay analysis from each formulation were taken following preparation and then again following 6 hours bench top storage at ambient temperature.

| Structure (SMILES) | stability in solution [1] | solubility under saturating conditions ([2]; all of the vehicles on test) | limit of solubility ([2]; in aqueous solution) |
| --- | --- | --- | --- |
| CN(C)CCc1c[nH]c2cccc(O)c12 [Psilocin] | highly unstable in solution | – | – |
| CN(C)CCc1c[nH]c2cccc(O)c12.O=C(O)c1ccccc1 [psilocin benzoate] | more stable | partially soluble | approximately 4 mg/ml |
